Measurements: US8785462B2, “5-hydroxypyrimidine-4-carboxamide derivative” (Daiichi Sankyo Company, Limited, priority 2009, dated 2014)

Test system: human liver cancer-derived cell line Hep3B
Experiment: In vitro erythropoietin (EPO) induction activity in Hep3B cells (human EPO ELISA of culture supernatant)
Type: cell-based
Settings: test compound 12.5 μM, Hep3B cells cultured 24 hours at 37° C., multiple of the EPO concentration in the control (0.5% DMSO = 1)
Procedure: In vitro erythropoietin (EPO) induction activity of test compounds was evaluated using human liver cancer-derived cell line Hep3B (ATCC, Manassas, Va.). Hep3B cells were cultured overnight at 37° C. in Dulbecco's modified Eagle's medium (DMEM) in the presence of 10% fetal bovine serum (FBS) (24-well plate, 1.0×10^5 cells/well). After replacing with fresh DMEM (+10% FBS) containing a test compound dissolved in 0.5% dimethyl sulfoxide (DMSO) (prepared to a concentration of 12.5 μM) or a solvent control (0.5% DMSO), the cells were cultured for 24 hours at 37° C. After recovering the culture supernatant, EPO concentration in the culture supernatant was quantified using a human EPO ELISA kit (StemCell Technologies).
The EPO concentration in the case of using a compound of each example as a test compound was expressed as a multiple of the EPO concentration in the control.

Row | Structure (SMILES) | fold induction at 12.5 µM
1 | Cc1nc(CC2CCN(c3ccc(-c4ccc(C(C)(C)CO)cc4)cc3)CC2)nc(C(=O)NCC(=O)O)c1O [Example 6, ({[5-Hydroxy-2-{(1-[4′-(2-hydroxy-1,1-dimethylethyl)biphenyl-4-yl]piperidin-4-yl}methyl)-6-methylpyrimidin-4-yl]carbonyl}amino)acetic acid] | 36
2 | Cc1nc(CC2CCN(c3ccc(-c4ccc(CO)cc4)cc3F)CC2)nc(C(=O)NCC(=O)O)c1O [Example 39, ({[2-{(1-[3-Fluoro-4′-(hydroxymethyl)biphenyl-4-yl]piperidin-4-yl}methyl)-5-hydroxy-6-methylpyrimidin-4-yl]carbonyl}amino)acetic acid] | 18
3 | Cc1nc(CC2CCN(c3ccc(-c4ccc(CC(C)O)cc4)cn3)CC2)nc(C(=O)NCC(=O)O)c1O (stereo not drawn) [Example 20, [({5-Hydroxy-2-[(1-{5-[4-(2-hydroxypropyl)phenyl]pyridin-2-yl}piperidin-4-yl)methyl]-6-methylpyrimidin-4-yl}carbonyl)amino]acetic acid] | 11
